The target in one experiment is Neuraminidase (Influenza A virus (strain A/USSR/90/1977 H1N1), UniProt P03469). In words: Inhibition of recombinant Influenza A virus H1N1 neuraminidase using 4-methylumbelliferyl-alpha-D-Nacetylneuraminic acid sodium salt hydrate as substrate by fluorometry.
Experiment [1] is described as follows: Inhibition of Clostridium perfringens neuraminidase 4-methylumbelliferyl-alpha-D-Nacetylneuraminic acid sodium salt hydrate as substrate by fluorometry.
The nature of experiment [2]: Inhibition of Clostridium perfringens neuraminidase by Dixon plot.
In experiment [3] the test system is Clostridium perfringens. In words: Antibacterial activity against Clostridium perfringens in tryptic soy broth after 24 hrs. Format: functional.
In experiment [4] the test system is Clostridium perfringens. In words: Inhibition of Clostridium perfringens neuraminidase 4-methylumbelliferyl-alpha-D-Nacetylneuraminic acid sodium salt hydrate as substrate at 100 uM by fluorometry.

Each structure is given as a SMILES string. Values after ≈ are worked out from the molar mass of the structure shown.

Sequence of Neuraminidase (P03469 whole entry): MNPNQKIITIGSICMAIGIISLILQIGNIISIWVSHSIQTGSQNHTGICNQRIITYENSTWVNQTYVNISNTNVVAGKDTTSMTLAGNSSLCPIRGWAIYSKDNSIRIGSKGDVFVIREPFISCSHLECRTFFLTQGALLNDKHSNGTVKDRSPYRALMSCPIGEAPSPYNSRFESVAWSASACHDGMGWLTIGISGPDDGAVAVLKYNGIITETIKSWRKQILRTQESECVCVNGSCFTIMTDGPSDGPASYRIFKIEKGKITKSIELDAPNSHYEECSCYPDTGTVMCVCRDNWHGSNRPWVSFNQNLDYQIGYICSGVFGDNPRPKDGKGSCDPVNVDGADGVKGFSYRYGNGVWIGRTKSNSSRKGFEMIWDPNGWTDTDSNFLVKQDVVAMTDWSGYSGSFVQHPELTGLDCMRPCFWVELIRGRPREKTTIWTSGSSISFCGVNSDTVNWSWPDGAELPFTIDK

The IC50 is the concentration at which inhibition is half-maximal. As for `c1c2c(cc3c1OCO3)-c1cc3ccc4c(c3c[n+]1CC2)OCO4` [COPTISINE], the IC50 on Neuraminidase is 25.3 µM; in experiment [1] it was 25.1 µM. On to `COc1cc2c(cc1OC)-c1c(C)c3cc(OC)c(OC)cc3c[n+]1CC2`, for which the IC50 in experiment [1] was 32.6 µM. In general, Ki refers to a measure of affinity in units of concentration, obtained from inhibition or displacement. One may read the MIC as the lowest concentration that inhibits growth of the organism. As for `COc1cc2c(cc1OC)-c1cc3ccc(OC)c(OC)c3c[n+]1CC2` [PALMITINE], the figures for the half-inhibitory concentration (IC50) (on Neuraminidase; in experiment [1]) were 33.1 µM and 12.8 µM, respectively. The Ki in experiment [2] worked out at 16.9 µM. Inhibition of growth against Clostridium perfringens [3] (MIC) required 44.7 µM.

Take `COc1ccc2cc3[n+](cc2c1OC)CCc1cc2c(cc1-3)OCO2` [BERBERINE]: the IC50 turned out to be 38.5 µM at Neuraminidase and 13.5 µM in experiment [1]. For the same compound, in experiment [2], the Ki is 11.9 µM. Moreover, the MIC with Clostridium perfringens [3] was 52.2 µM. As for `COc1cc(/C=C/C(=O)CC(=O)/C=C/c2ccc(O)c(OC)c2)ccc1O` [CURCUMIN], the half-inhibitory concentration (IC50) in experiment [1] was found to be 6 µM. The term inhibition denotes the share of the control response that was lost under treatment. Regarding `c1cc2c(c3c1CC1c4cc5c(cc4CCN1C3)OCO5)OCO2` (configuration not stated), in the experiment on Clostridium perfringens [4], the inhibition came to 4.7%. As to `CC1(C)S[C@@H]2[C@H](NC(=O)[C@H](N)c3ccccc3)C(=O)N2[C@H]1C(=O)O` [AMPICILLIN], in the experiment on Clostridium perfringens [3], the minimal inhibitory concentration (MIC) stood at 0.3 µM (≈ 0.105 µg/mL). For the compound `COc1cc2c(cc1OC)-c1c(OC)c(OC)cc3c1[C@H](C2)N(C)CC3` [GLAUCINE], in experiment [1], the half-inhibitory concentration (IC50) was found to be 96.9 µM. As to `COc1cc2c(cc1O)CC[n+]1cc3c(OC)c(OC)ccc3c(C)c1-2`, the figures for the IC50 (at Neuraminidase; in experiment [1]) were 80.5 µM and 41.3 µM, respectively.

For the compound `COc1cc2c(cc1O)CC[n+]1cc3c(OC)c(OC)ccc3cc1-2` [JATRORRHIZINE], the figures for the IC50 (on Neuraminidase; in experiment [1]) were 66.2 µM and 37 µM, respectively.

As to `c1c2c(cc3c1OCO3)-c1cc3cc4c(cc3c[n+]1CC2)OCO4`, the 50% inhibitory concentration (IC50) at Neuraminidase amounted to 126 µM; in experiment [1], 65.2 µM. `COc1cc2c(cc1OC)[C@H]1[C@@H](C)c3ccc(OC)c(OC)c3CN1CC2`: the inhibition with Clostridium perfringens [4] was determined as 12.7%.

The values are drawn from ChEMBL document CHEMBL3351551, “Neuraminidase inhibitory activities of quaternary isoquinoline alkaloids from Corydalis turtschaninovii rhizome” (Bioorg Med Chem, 2014).
